According to publication PMC8202330, “Phosphorylation of the LIR Domain of SCOC Modulates ATG8 Binding Affinity and Specificity” (Journal of Molecular Biology, 2021):
Residues, ends and D or L forms follow the SMILES beside them. *: point of attachment. Cbz = O=C(OCc1ccccc1)*

The molecules below were run on EGFP-SCOC (isoform 1 and 3) in HeLa Flp-In T-Rex cells (assay: Western blot of EGFP-SCOC protein levels with lysosomal or proteasomal inhibitors). Settings: 7 h in full medium or EBSS, 10 µM MG132, 1 µM epoxymycin, 100 nM Bafilomycin A1.
Type: cell-based
Method: To determine whether SCOC is functioning as an autophagy receptor and degraded by autophagy, we induced expression of EGFP-SCOC (isoform 1 and 3) in HeLa cells followed by 7 h EBSS starvation in the presence and absence of lysosomal or proteasomal inhibitors. […] Thus, both SCOC isoform1 and 3 are not turned over by autophagy, but by the proteasome.
HeLa Flp-In T-Rex cell lines expressing GFP-SCOC (isoform 1), GFP-SCOC (isoform 3), GFP-SCOC F14A/I17A (isoform 3) from a tetracycline inducible CMV promoter were made using the FlpIn T-Rex system (Thermofisher, R71407). pDest-EGFP-Flp-In SCOC iso1, pDest-EGFP-Flp-In SCOC iso3 and pDest-EGFP-Flp-In SCOC iso3 LIRm constructs were established by GATEWAY cloning into the pDEST-EGFP-FlpIn vector.[18] The HeLa-based Flp-In T-Rex host cell line (Invitrogen) contains a single integrated FRT site for insertion of selected constructs. To generate stable cell lines, Flp-In plasmids carrying the selected GFP-tagged constructs were co-transfected with pOG44 encoding the Flp-In recombinase in the ratio of 1:3. Cells were selected by treatment with 200 µg/ml Hygromycin B (Invitrogen, #10687010) and 7,5 µg/ml Blasticidine (Gibco, A1113903). Expression from the CMV-TetO2 promoter was induced by adding 0.5 μg/ml of tetracycline (Sigma, T7660) for 16 to 24 hours. HeLa Flp-In T-Rex cell lines were maintained in Dulbecco’s modified Eagle’s medium supplemented with 10% fetal calf serum, 4 mM l-glutamine, 1% streptomycin-penicillin, 100 µg/ml Hygromycin B, and 3.5 µg/ml Blasticitidine. Cells were treated as indicated with 100 nM Bafilomycin A1, 10 µM MG132, or 1 µM epoxomicin in full medium or Earle’s balanced salt solution (EBSS).
Cells were lysed in ice-cold TNTE buffer (20 mM Tris-HCl, pH 7.4, 150 mM NaCl, 0.5% w/v Triton X-100, 10% v/v glycerol, 5 mM EDTA) containing EDTA-free Complete Protease Inhibitor cocktail (Roche) and PhosSTOP (Roche). Lysates were cleared by centrifugation and resolved on NuPAGE Bis-Tris 4–12% gels (Life Technologies) followed by transfer onto a PVDF membrane (Millipore). […]

SMILES | SCOC isoform 1 and 3 protein levels
CO/C1=C\C(C)=C\[C@@H](C)[C@@H](O)[C@@H](C)C/C(C)=C/C=C/[C@H](OC)[C@@H]([C@@H](C)[C@@H](O)[C@H](C)[C@@]2(O)C[C@@H](O)[C@H](C)[C@@H](C(C)C)O2)OC1=O [BafilomycinA1] | did not have any effect
CC(C)C[C@@H](C=O)NC(=O)[C@H](CC(C)C)NC(=O)[C@H](CC(C)C)NC(=O)OCc1ccccc1 [MG132] (Cbz-Leu-Leu-Leu-aldehyde) | increased
CC[C@H](C)[C@H](NC(=O)[C@H]([C@@H](C)CC)N(C)C(C)=O)C(=O)N[C@H](C(=O)N[C@@H](CC(C)C)C(=O)[C@@]1(C)CO1)[C@@H](C)O [epoxymycin] | increased
